Measured values taken from the Deep4Chem optical property database.

assay: solvent given as SMILES; details: in C1CCCCC1

| SMILES | emission maximum [nm] |
| --- | --- |
| COc1cc(/C=C/C(=O)CC(=O)/C=C/c2ccc(O)c(OC)c2)ccc1O | 446 |
| COc1ccc2n1[B-](F)(F)[N+]1=C(c3ccccc3)C=CC1=C2c1ccc(C)cc1 | 553 |
| C(#Cc1ncnc2ccccc12)c1ccc(N(c2ccccc2)c2ccccc2)cc1 | 433 |
| CN(C)c1ccc(C(=O)Nc2ccc([N+](=O)[O-])cc2)cc1 | 360 |

same assay, conditions: in C1CCOC1

| SMILES | emission maximum [nm] |
| --- | --- |
| Cc1cc(C2(c3cc(C)c(O)c(Br)c3)OS(=O)(=O)c3ccccc32)cc(Br)c1O | 492 |
| Cc1ccc(C(=O)/C=C/c2ccc(N(C)C)cc2)cc1 | 503 |
| Cc1ccc(-c2c3ccc([nH]3)c3nc(c(-c4ccc(C#N)cc4)c4ccc([nH]4)c4ccc([nH]4)c(-c4ccc(C)cc4)c4ccc2o4)C=C3)cc1 | 730 |
| Cc1ccc(C)n1-c1cccc(C#N)c1 | 481 |
| Cc1cc(C)c([B-]2(c3c(C)cc(C)cc3C)[O+]=P(c3ccccc3)(c3ccccc3)c3cc(-c4ccc(C(F)(F)F)cc4)sc3-c3sc(-c4ccc(C(F)(F)F)cc4)cc32)c(C)c1 | 468 |
| COc1ccc2n1[B-](F)(F)[N+]1=C(c3ccccc3)C=CC1=C2c1ccc(C)cc1 | 555 |
| C[Si]1(c2ccccc2)C(c2ccc3c4ccccc4n(-c4ccccc4)c3c2)=C(c2ccccc2)C(c2ccccc2)=C1c1ccc2c3ccccc3n(-c3ccccc3)c2c1 | 525 |
| C(#Cc1ncnc2ccccc12)c1ccc(N(c2ccccc2)c2ccccc2)cc1 | 535 |
| CN(C)c1ccc(C(=O)Nc2ccc([N+](=O)[O-])cc2)cc1 | 400 |

same assay, conditions: in C1COCCO1

| SMILES | emission maximum [nm] |
| --- | --- |
| Cc1cc(C2(c3cc(C)c(O)c(Br)c3)OS(=O)(=O)c3ccccc32)cc(Br)c1O | 450 |
| COc1ccc2n1[B-](F)(F)[N+]1=C(c3ccccc3)C=CC1=C2c1ccc(C)cc1 | 556 |

same assay, conditions: in CC1CCCCC1

| emission maximum [nm] | SMILES |
| --- | --- |
| 356.11 | COC(=O)C([NH3+])Cc1ccc2oc(-c3ccncc3)nc2c1 (centres undefined) |

same assay, conditions: in CC#N

| SMILES | emission maximum [nm] |
| --- | --- |
| O=C(O)c1ccc(-c2ccc(-c3nc(-c4ccccc4)c4ccccn34)cc2)s1 | 485 |
| Cc1cc(C2(c3cc(C)c(O)c(Br)c3)OS(=O)(=O)c3ccccc32)cc(Br)c1O | 497 |
| Cc1ccc(-c2sc(/C(C#N)=C/c3ccc(C#N)cc3)nc2-c2ccc(Cl)cc2)cc1 | 535 |
| Cc1ccc(C(=O)/C=C/c2ccc(N(C)C)cc2)cc1 | 529 |
| Cn1cc(-c2nc3ccccc3nc2/C=C/N2CCCC2)c2ccccc21 | 556.97 |
| COc1nc(Nc2ccc3c4c(cccc24)C(=O)c2ccccc2-3)nc(OC)n1 | 554.02 |
| COc1cc(/C=C/C(=O)CC(=O)/C=C/c2ccc(O)c(OC)c2)ccc1O | 538 |
| COc1ccc(/C=C/C2=CC(/C=C/c3ccc(OC)cc3)=[O+][B-](F)(F)O2)cc1 | 549 |
| COC(=O)C([NH3+])Cc1ccc2oc(-c3ccncc3)nc2c1 (centres undefined) | 367.92 |
| CCc1ccc(/C=C/c2ccc(-c3nnc(-c4ccc(-c5cc6ccccc6s5)cc4)o3)cc2)cc1 | 421 |
| C(#Cc1ncnc2ccccc12)c1ccc(N(c2ccccc2)c2ccccc2)cc1 | 610 |
| CN(C)c1ccc(C(=O)Nc2ccc([N+](=O)[O-])cc2)cc1 | 430 |
| C[n+]1ccn(CCCCc2ccc3c(c2)c2ccccc2n3-c2cc(C#N)c(C#N)cc2F)c1 | 558 |

same assay, conditions: in CC(=O)O

| SMILES | emission maximum [nm] |
| --- | --- |
| Cc1ccc(C(=O)/C=C/c2ccc(N(C)C)cc2)cc1 | 512 |

same assay, conditions: in CC(C)(C)O

| SMILES | emission maximum [nm] |
| --- | --- |
| Cc1cc(C2(c3cc(C)c(O)c(Br)c3)OS(=O)(=O)c3ccccc32)cc(Br)c1O | 473 |

same assay, conditions: in CC(C)=O

| SMILES | emission maximum [nm] |
| --- | --- |
| Cc1cc(C2(c3cc(C)c(O)c(Br)c3)OS(=O)(=O)c3ccccc32)cc(Br)c1O | 490 |
| Cc1ccc(C(=O)/C=C/c2ccc(N(C)C)cc2)cc1 | 516 |
| Cn1cc(-c2nc3ccccc3nc2/C=C/N2CCCC2)c2ccccc21 | 465.99 |
| COc1nc(Nc2ccc3c4c(cccc24)C(=O)c2ccccc2-3)nc(OC)n1 | 533.9 |
| COc1ccc(/C=C/C2=CC(/C=C/c3ccc(OC)cc3)=[O+][B-](F)(F)O2)cc1 | 534 |
| CCc1ccc(/C=C/c2ccc(-c3nnc(-c4ccc(-c5cc6ccccc6s5)cc4)o3)cc2)cc1 | 420 |

same assay, conditions: in CC(C)O

| SMILES | emission maximum [nm] |
| --- | --- |
| Cc1cc(C2(c3cc(C)c(O)c(Br)c3)OS(=O)(=O)c3ccccc32)cc(Br)c1O | 498 |
| COc1nc(Nc2ccc3c4c(cccc24)C(=O)c2ccccc2-3)nc(OC)n1 | 576.04 |

same assay, conditions: in CCCCCC

| SMILES | emission maximum [nm] |
| --- | --- |
| CCCCCCC(CCCCCC)N1C(=O)c2cccc3c(-c4ccc([Si](C)(C)C)cc4)ccc(c23)C1=O | 406.7 |
| F[B-]1(F)n2c(ccc2-c2cccs2)C(C(F)(F)F)=C2C=CC(c3cccs3)=[N+]21 | 674 |
| Cc1ccc(C)n1-c1cccc(C#N)c1 | 403 |

same assay, conditions: in CCCCCCCC

| SMILES | emission maximum [nm] |
| --- | --- |
| CCc1ccc(/C=C/c2ccc(-c3nnc(-c4ccc(-c5cc6ccccc6s5)cc4)o3)cc2)cc1 | 389 |

same assay, conditions: in CCCCCCCCCCCCCC

| SMILES | emission maximum [nm] |
| --- | --- |
| CCCCCCC(CCCCCC)N1C(=O)c2cccc3c(-c4ccc([Si](C)(C)C)cc4)ccc(c23)C1=O | 407 |

same assay, conditions: in CCCCCCCCCCCO

| SMILES | emission maximum [nm] |
| --- | --- |
| CCCCCCC(CCCCCC)N1C(=O)c2cccc3c(-c4ccc([Si](C)(C)C)cc4)ccc(c23)C1=O | 430.6 |

same assay, conditions: in CCCCCCCCCCO

| SMILES | emission maximum [nm] |
| --- | --- |
| CCc1ccc(/C=C/c2ccc(-c3nnc(-c4ccc(-c5cc6ccccc6s5)cc4)o3)cc2)cc1 | 420 |

same assay, conditions: in CCCCCCCCO

| SMILES | emission maximum [nm] |
| --- | --- |
| CCc1ccc(/C=C/c2ccc(-c3nnc(-c4ccc(-c5cc6ccccc6s5)cc4)o3)cc2)cc1 | 421 |

same assay, conditions: in CCCCCO

| SMILES | emission maximum [nm] |
| --- | --- |
| Cc1cc(C2(c3cc(C)c(O)c(Br)c3)OS(=O)(=O)c3ccccc32)cc(Br)c1O | 485 |
| CCc1ccc(/C=C/c2ccc(-c3nnc(-c4ccc(-c5cc6ccccc6s5)cc4)o3)cc2)cc1 | 421 |

same assay, conditions: in CCCCCl

| SMILES | emission maximum [nm] |
| --- | --- |
| Cc1ccc(C)n1-c1cccc(C#N)c1 | 477 |

same assay, conditions: in CCCCO

| SMILES | emission maximum [nm] |
| --- | --- |
| CCCCCCC(CCCCCC)N1C(=O)c2cccc3c(-c4ccc([Si](C)(C)C)cc4)ccc(c23)C1=O | 434.2 |

same assay, conditions: in CCCCOCCCC

| SMILES | emission maximum [nm] |
| --- | --- |
| COc1nc(Nc2ccc3c4c(cccc24)C(=O)c2ccccc2-3)nc(OC)n1 | 516 |

same assay, conditions: in CCCO

| SMILES | emission maximum [nm] |
| --- | --- |
| Cc1cc(C2(c3cc(C)c(O)c(Br)c3)OS(=O)(=O)c3ccccc32)cc(Br)c1O | 505 |
| CCc1ccc(/C=C/c2ccc(-c3nnc(-c4ccc(-c5cc6ccccc6s5)cc4)o3)cc2)cc1 | 422 |

same assay, conditions: in CCO

| SMILES | emission maximum [nm] |
| --- | --- |
| Cc1cc(C2(c3cc(C)c(O)c(Br)c3)OS(=O)(=O)c3ccccc32)cc(Br)c1O | 507 |
| Cc1ccc(C(=O)/C=C/c2ccc(N(C)C)cc2)cc1 | 533 |
| Cn1cc(-c2nc3ccccc3nc2/C=C/N2CCCC2)c2ccccc21 | 548.05 |
| C=C(C)C(CN1C(=O)c2cccc3c2c(cc2oc(C)nc23)C1=O)OO (centres undefined) | 416 |
| CCOC(=O)c1ccccc1-c1c2ccc(=[N+](CC)CC)cc-2oc2c1oc1cc(N)ccc12 | 640 |
| CCOC(=O)/C=C/c1cc2ccc(-c3cn(Cc4ccccc4)nn3)cc2oc1=O | 435 |
| N#Cc1cnc(-c2c3ccccc3c(-c3ccccc3)c3ccccc23)nc1 | 520 |
| COc1cc(OC)cc(C(=O)OCc2c(C)c(=O)n3c(=O)c(C)c(C)n23)c1 | 462 |

same assay, conditions: in CCOC(C)=O

| SMILES | emission maximum [nm] |
| --- | --- |
| Cc1cc(C2(c3cc(C)c(O)c(Br)c3)OS(=O)(=O)c3ccccc32)cc(Br)c1O | 478 |
| COc1nc(Nc2ccc3c4c(cccc24)C(=O)c2ccccc2-3)nc(OC)n1 | 523.01 |
| COc1ccc(/C=C/C2=CC(/C=C/c3ccc(OC)cc3)=[O+][B-](F)(F)O2)cc1 | 515 |
| COc1ccc2n1[B-](F)(F)[N+]1=C(c3ccccc3)C=CC1=C2c1ccc(C)cc1 | 552 |

same assay, conditions: in CCOCC

| SMILES | emission maximum [nm] |
| --- | --- |
| Cc1cc(C2(c3cc(C)c(O)c(Br)c3)OS(=O)(=O)c3ccccc32)cc(Br)c1O | 476 |
| COc1nc(Nc2ccc3c4c(cccc24)C(=O)c2ccccc2-3)nc(OC)n1 | 520.02 |
| Cc1ccc(C)n1-c1cccc(C#N)c1 | 444 |
